Reference: patent US20120028244A1, “Anti-Viral Azide Containing Compounds” (LIFE TECHNOLOGIES CORPORATION, priority 2010, published 2012)

How the values were obtained:
HIV = experiment: Luciferase reporter assay of infectivity of azide-labeled HIV on TZM/BI reporter cells; type: cell-based, human immunodeficiency virus; conditions: HIVNL4-3 produced in CEMx174 cells spiked with the compound; labeled virus incubated 12 hours on TZM/BI reporter cells; single cycle replication system; FIGS. 3 and 4
Experimental: CEMx174 cells were transfected with HIVNL4-3 in a T-150 flask and the virus production was monitored by reverse transcriptase activity until peak virus production occurred (usually 7 to 9 days post transfection). Prior to transfection, the CEMx174 cells were spiked with the following azide-modified biomolecules: 15-azidopentadecanoic acid (50-100 μM), 12-azidododecanoic acid (50-100 μM), tetraacetylated N-azidoacetylgalactosamine (20-40 μM), and tetraacetylated N-azidoacetyl-D-mannosamine (20-40 μM).
Labeled virus was also obtained from the transfected cells. More specifically, virus-containing supernatants were collected and virus was purified through 20% sucrose as previously described (Graham, D. R. et al., Proteomics 2008, 8:4919-30). The purified virus was then mixed with the CLICK-IT® detection reagent, tetramethylrhodamine (TAMRA) alkyne and the CLICK-IT® Protein Reaction Buffer Kit (Invitrogen, Carlsbad, Calif.). Virus samples were run on a one-dimensional gel to reveal azide-labeled viral proteins (FIG. 2). […]
To examine the effect of the azide-modified biomolecules on the innate biology of the virus, the azide-labeled virus from the transfected cells was isolated and tested in cell infection studies. […] Viral infectivity was determined by measuring cellular luciferase activities with two different luciferase reagents.

[1] = system: Nuclear-GFP BacMam 2.0 virus (baculovirus); experiment: Infectivity of PTM analog-labeled Nuclear-GFP BacMam virus in U2-OS cells; type: cell-based; conditions: BacMam virus labeled in Sf9 insect cells with 50 uM analog; U2-OS cells incubated overnight with labeled virus; FIG. 5
Source text: Inhibition of insect cell baculovirus infectivity with azido fatty acid analogs: The BacMam system uses a modified insect cell virus (baculovirus) as a vehicle to efficiently deliver and express genes in mammalian cells. A Nuclear-GFP BacMam 2.0 expression system (Invitrogen, C10602) was used as a model to determine if PTM analog labeling of the virus would affect mammalian cell infectivity. Viruses were labeled with various PTM analogs and used to infect mammalian cells. Infectivity was determined by the expression of nuclear-GFP, as viral entry into the cell is required for expression of GFP protein. […]
Characterization of BacMam Virus Production: To verify, quantitate, and normalize the amount of enriched viruses obtained from insect cell supernatants, samples of each virus were lysed in SDS sample preparation buffer (SPB), sonicated with a probe tip sonicator, and heated at 90C to completely dissolve the viral proteins. Viral protein concentrations of the lysates were then determined. […]
Mammalian Cell Infection Protocol: To determine if the PTM analog-labeled viruses retain the ability to infect mammalian cells, 50,000 U2-OS cells (human osteosarcoma cell line) were plated onto a 6 well-chamber glass bottom plate. […] The following day cells were imaged on AMG EVOS fluorescence microscope at 10× or 20× magnification using both white light and GFP filters (FIG. 5). […]

## [N-]=[N+]=NCCCCCCCCCCCC(=O)O [12-azidododecanoic acid]
HIV
  impact on the infectivity of the virus (cellular luciferase activity): profound impact on the infectivity of the virus
[1]
  nuclear-GFP expression in U2-OS cells (viral entry): no nuclear-GFP expression

## [N-]=[N+]=NCCCCCCCCCCCCCCC(=O)O [15-azidopentadecanoic acid]
[1]
  nuclear-GFP expression in U2-OS cells (viral entry): no nuclear-GFP expression
